{"source": "patent US9434735B2", "about": "“Amorphous form of 4-((4-(cyclopentyloxy)-5-(2-methylbenzo[d]oxazol-6-yl)-7h-pyrrolo[2,3-d]pyrimidin-2-yl)amino)-3-methoxy-n-methylbenzamide, compositions thereof and methods of their use” (Signal Pharmaceuticals, LLC, priority 2014, dated 2016)", "type_in_all_cases": "physicochemical", "key": {"[1]": {"assay": "Dissolution of amorphous form in reconstitution formulations"}, "[2]": {"assay": "Solubility of spray-dried amorphous form in ethanol", "details": "amorphous form obtained by spray-drying", "description": "An amorphous form of Compound 1 was obtained from a spray-drying process of Compound 1 as depicted in FIG. 5. The spray-drying process comprised: (1) mixing Compound 1 with methanol at 25° C. to yield a suspension; (2) heating to 121° C.; (3) spray-drying under the conditions in Table 1 or Table 2 to yield an amorphous solid form; and (4) collecting the resulting solids. Alternatively, the spray drying process comprised: (1) mixing Compound 1 with acetone to yield a solution; (2) spray-drying under the conditions in Table 3 to yield an amorphous solid form; and (3) collecting the resulting solids."}, "[3]": {"assay": "Stability study of the amorphous form (HPLC purity, XRPD)", "details": "over three months; HPLC purity (FIG. 6), XRPD (FIG. 7)", "description": "FIG. 6 depicts a stability study of the amorphous form based on its HPLC purity over 3 months. FIG. 7 depicts a stability study of the amorphous form based on its XRPD over 3 months. Solid samples were analyzed by XRPD. XRPD analysis was conducted on a PANalytical Empyrean or a Thermo ARL X'TRA X-ray powder diffractometer using Cu Kα radiation at 1.54 Å."}}}
{"smiles": "CNC(=O)c1ccc(Nc2nc(OC3CCCC3)c3c(-c4ccc5nc(C)oc5c4)c[nH]c3n2)c(OC)c1", "note": "[amorphous Compound 1, 4-((4-(cyclopentyloxy)-5-(2-methylbenzo[d]oxazol-6-yl)-7H-pyrrolo[2,3-d]pyrimidin-2-yl)amino)-3-methoxy-N-methylbenzamide]", "values": [{"measurement": "Dissolution Time", "setting": "[1]; 17 mg amorphous Compound 1, 0.105 g EtOH, 0.656 g PEG-300, 0.239 g Saline", "result": 1, "unit": "min"}, {"measurement": "Dissolution Time", "setting": "[1]; #1 4.6 mL EtOH added to 700 mg amorphous Compound 1, #2 26.3 mL (25.1:1.2) PEG-300:Ethanol, #3 10.3 mL Saline", "result": 1, "unit": "min"}, {"measurement": "Dissolution Time", "setting": "[1]; #1 PEG-300/EtOH, #2 Saline", "result": 9, "unit": "min"}, {"measurement": "Solubility in ethanol", "setting": "[2]", "result": "readily soluble"}, {"measurement": "Stability (HPLC purity and XRPD)", "setting": "[3]", "result": "chemically and physically stable"}]}
